Legend:
Adenosine receptor A1 = target: T1, Adenosine receptor A1 (Homo sapiens, UniProt P30542)
T1 sequence (P30542 whole entry): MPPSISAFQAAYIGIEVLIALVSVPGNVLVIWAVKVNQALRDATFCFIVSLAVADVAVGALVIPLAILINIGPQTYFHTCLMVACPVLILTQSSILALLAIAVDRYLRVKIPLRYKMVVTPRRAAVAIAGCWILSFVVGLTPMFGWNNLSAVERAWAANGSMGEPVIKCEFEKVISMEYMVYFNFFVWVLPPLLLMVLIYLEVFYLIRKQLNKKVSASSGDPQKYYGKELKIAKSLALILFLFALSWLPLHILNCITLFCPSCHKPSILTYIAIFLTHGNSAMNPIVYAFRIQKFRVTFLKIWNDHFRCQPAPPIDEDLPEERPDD

[1] = target: T2, Alpha-2A adrenergic receptor (Homo sapiens, UniProt P08913); format: functional, cell-based
T2 sequence (P08913 whole entry): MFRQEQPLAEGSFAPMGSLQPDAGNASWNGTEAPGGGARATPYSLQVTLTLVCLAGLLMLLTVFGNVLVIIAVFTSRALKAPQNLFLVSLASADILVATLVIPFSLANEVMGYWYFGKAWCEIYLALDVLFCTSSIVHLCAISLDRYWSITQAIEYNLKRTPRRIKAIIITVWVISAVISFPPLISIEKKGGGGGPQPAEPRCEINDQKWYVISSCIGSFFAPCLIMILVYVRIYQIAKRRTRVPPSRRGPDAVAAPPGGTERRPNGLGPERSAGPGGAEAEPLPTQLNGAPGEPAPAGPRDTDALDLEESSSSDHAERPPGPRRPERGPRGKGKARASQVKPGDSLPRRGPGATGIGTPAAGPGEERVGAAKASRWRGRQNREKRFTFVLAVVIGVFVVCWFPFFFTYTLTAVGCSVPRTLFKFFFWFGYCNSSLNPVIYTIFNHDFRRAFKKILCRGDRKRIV

[2] = target: T3, Neuropeptide Y receptor type 1 (Homo sapiens, UniProt P25929)
T3 sequence (P25929 whole entry): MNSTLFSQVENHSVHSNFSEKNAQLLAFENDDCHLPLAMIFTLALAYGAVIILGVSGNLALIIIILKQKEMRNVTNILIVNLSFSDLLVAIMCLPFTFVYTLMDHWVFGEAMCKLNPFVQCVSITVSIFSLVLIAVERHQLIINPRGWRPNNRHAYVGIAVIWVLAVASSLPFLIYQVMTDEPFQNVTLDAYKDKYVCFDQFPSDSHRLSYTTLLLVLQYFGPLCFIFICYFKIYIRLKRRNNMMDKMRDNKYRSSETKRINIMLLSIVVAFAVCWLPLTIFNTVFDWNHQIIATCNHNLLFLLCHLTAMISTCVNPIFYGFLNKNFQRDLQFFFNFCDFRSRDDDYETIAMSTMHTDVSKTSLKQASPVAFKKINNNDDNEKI

[3] = target: Prostaglandin G/H synthase 1 (Homo sapiens, UniProt P23219); format: functional
Chain of Prostaglandin G/H synthase 1 (P23219 whole entry): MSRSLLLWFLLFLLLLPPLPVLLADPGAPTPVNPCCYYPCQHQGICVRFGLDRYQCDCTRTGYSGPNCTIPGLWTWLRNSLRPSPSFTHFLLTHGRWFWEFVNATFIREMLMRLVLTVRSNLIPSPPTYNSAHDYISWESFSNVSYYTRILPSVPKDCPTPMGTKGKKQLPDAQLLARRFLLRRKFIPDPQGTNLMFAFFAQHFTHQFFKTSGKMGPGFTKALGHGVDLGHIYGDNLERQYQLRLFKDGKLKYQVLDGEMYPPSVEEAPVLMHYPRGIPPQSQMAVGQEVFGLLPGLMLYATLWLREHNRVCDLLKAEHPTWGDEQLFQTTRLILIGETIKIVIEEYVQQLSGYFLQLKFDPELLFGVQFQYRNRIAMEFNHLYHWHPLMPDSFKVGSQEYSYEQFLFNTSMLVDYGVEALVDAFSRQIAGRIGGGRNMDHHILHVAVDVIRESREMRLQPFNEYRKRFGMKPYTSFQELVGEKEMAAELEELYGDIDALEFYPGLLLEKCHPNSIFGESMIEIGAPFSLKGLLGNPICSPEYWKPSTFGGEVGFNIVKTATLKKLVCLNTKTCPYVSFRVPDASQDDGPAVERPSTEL

Progesterone receptor = target: T4, Progesterone receptor (Homo sapiens, UniProt P06401); format: functional
T4 sequence (P06401 whole entry): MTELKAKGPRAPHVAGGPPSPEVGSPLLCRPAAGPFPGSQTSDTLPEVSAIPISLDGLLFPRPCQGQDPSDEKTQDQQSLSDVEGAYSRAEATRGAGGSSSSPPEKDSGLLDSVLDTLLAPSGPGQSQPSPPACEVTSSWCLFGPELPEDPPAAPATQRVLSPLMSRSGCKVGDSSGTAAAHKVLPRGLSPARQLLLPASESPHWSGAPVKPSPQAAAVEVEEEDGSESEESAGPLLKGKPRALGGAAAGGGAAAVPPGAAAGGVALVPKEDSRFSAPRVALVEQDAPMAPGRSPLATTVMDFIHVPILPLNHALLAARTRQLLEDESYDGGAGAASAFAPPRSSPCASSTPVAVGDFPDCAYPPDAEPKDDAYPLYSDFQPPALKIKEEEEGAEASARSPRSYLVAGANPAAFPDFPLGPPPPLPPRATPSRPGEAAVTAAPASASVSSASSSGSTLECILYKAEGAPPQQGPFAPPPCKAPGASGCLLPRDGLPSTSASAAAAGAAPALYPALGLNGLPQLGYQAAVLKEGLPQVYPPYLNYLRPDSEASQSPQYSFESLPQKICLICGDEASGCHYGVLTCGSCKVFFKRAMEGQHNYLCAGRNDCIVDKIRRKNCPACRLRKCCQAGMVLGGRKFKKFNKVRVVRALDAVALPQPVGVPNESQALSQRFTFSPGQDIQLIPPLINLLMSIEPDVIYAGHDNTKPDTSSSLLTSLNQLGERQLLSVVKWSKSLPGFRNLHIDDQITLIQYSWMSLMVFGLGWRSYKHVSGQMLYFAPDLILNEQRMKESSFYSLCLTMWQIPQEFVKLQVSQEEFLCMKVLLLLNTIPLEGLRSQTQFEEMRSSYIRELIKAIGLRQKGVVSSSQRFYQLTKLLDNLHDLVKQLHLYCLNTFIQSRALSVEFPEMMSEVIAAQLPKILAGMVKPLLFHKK
Further: assay procedure not described here.

Compound	AC50 (Adenosine receptor A1)	AC50 [1]	AC50 [2]	AC50 [3]	AC50 (Progesterone receptor)
O=C(O)COCCN1CCN(C(c2ccccc2)c2ccc(Cl)cc2)CC1 (stereo unspecified) [CETIRIZINE]	> 30 µM	> 10 µM	> 30 µM	–	–
Cc1oc(=O)oc1COC(=O)[C@@H]1N2C(=O)[C@@H](NC(=O)[C@H](N)c3ccccc3)[C@H]2SC1(C)C [LENAMPICILLIN]	–	–	–	> 30 µM	–
c1ccc2c(SC3=NCCN3)c[nH]c2c1 [TINAZOLINE]	–	–	–	> 30 µM	–
CC(OCCN1CCCCCC1)(c1ccccc1)c1ccc(Cl)cc1 (stereo unspecified) [SETASTINE]	–	–	–	> 30 µM	–
O=C(O)c1cccnc1Nc1cccc(C(F)(F)F)c1 [NIFLUMIC ACID]	> 10 µM	> 10 µM	> 10 µM	–	> 10 µM
COc1cc(C)c2c(Oc3cccc(C(F)(F)F)c3)c(OC)cc(NC(C)CCCN)c2n1 (stereo unspecified) [TAFENOQUINE]	–	–	–	3.81 µM	–
Cc1ccccc1-n1c(CF)nc2ccc(N)cc2c1=O [AFLOQUALONE]	> 30 µM	> 10 µM	> 30 µM	–	> 30 µM
OC[C@H]1O[C@@H](n2cnc3c2NC=NC[C@H]3O)C[C@@H]1O [PENTOSTATIN]	0.41 µM	> 30 µM	> 30 µM	–	> 30 µM
NC(=O)[C@@H]1CC[C@@H]2CN1C(=O)N2OS(=O)(=O)O [AVIBACTAM]	–	–	–	> 30 µM	–
COc1ccc([C@@H]2CC(=O)c3c(O)cc(O)cc3O2)cc1O [HESPERETIN]	> 10 µM	> 10 µM	> 10 µM	–	> 10 µM
CCCN1CC(NS(=O)(=O)N(CC)CC)CC2Cc3c(O)cccc3CC21 (stereo unspecified) [QUINAGOLIDE]	> 30 µM	> 30 µM	> 30 µM	–	> 30 µM
COC(=O)C1=C(C)NC(C)=C(C(=O)OCCN2CCN(C(c3ccccc3)c3ccccc3)CC2)C1c1cccc([N+](=O)[O-])c1 (stereo unspecified) [MANIDIPINE 6300]	> 30 µM	> 30 µM	> 30 µM	–	> 30 µM
CN(C)C/C=C/C(=O)Nc1cc2c(Nc3ccc(F)c(Cl)c3)ncnc2cc1O[C@H]1CCOC1 [AFATINIB]	> 30 µM	–	> 30 µM	–	> 30 µM
CC(C)(Oc1ccc(CCNC(=O)c2ccc(Cl)cc2)cc1)C(=O)O [BEZAFIBRATE]	> 10 µM	> 10 µM	> 10 µM	–	> 10 µM
CN[C@@H](C)[C@@H](O)c1ccccc1 [PSEUDOEPHEDRINE]	> 30 µM	> 10 µM	> 30 µM	–	–
CCOC(=O)c1c(CSc2ccccc2)n(C)c2cc(Br)c(O)c(CN(C)C)c12 [UMIFENOVIR]	> 30 µM	> 30 µM	> 30 µM	–	> 30 µM
O=C1c2ccccc2C(=O)C1c1ccccc1 [PHENINDIONE]	> 10 µM	> 10 µM	> 10 µM	–	> 10 µM
C[C@]12CCC(=O)C[C@@H]1CC[C@@H]1[C@@H]2CC[C@]2(C)[C@@H](O)CC[C@@H]12 [STANOLONE]	> 30 µM	> 30 µM	> 30 µM	–	0.0396 µM
C[C@]12C=CC(=O)C=C1CC[C@@H]1[C@@H]2CC[C@]2(C)OC(=O)CC[C@@H]12 [TESTOLACTONE]	> 10 µM	> 30 µM	> 10 µM	–	> 10 µM
CC(Cc1cccc(C(F)(F)F)c1)NCCOC(=O)c1ccccc1 (stereo unspecified) [BENFLUOREX]	> 30 µM	–	> 30 µM	–	> 30 µM

Compound	AC50 (Adenosine receptor A1)	AC50 [1]	AC50 [2]	AC50 [3]	AC50 (Progesterone receptor)
O=C1c2cccc3c2[C@H](CCC3)CN1[C@@H]1CN2CCC1CC2 [PALONOSETRON]	> 30 µM	25 µM	> 30 µM	–	> 30 µM
Cc1ccccc1N1C(=O)c2cc(S(N)(=O)=O)c(Cl)cc2NC1C (stereo unspecified) [METOLAZONE]	> 10 µM	> 10 µM	> 10 µM	–	> 10 µM
C[N+](C)(C)CCOP(=O)([O-])OC[C@H](O)CO	> 30 µM	> 30 µM	> 30 µM	–	> 30 µM
CCOC(=O)c1ccc(N)cc1 [BENZOCAINE]	> 10 µM	> 10 µM	> 10 µM	–	> 10 µM
C/C=C(/C(=C/C)c1ccc(O)cc1)c1ccc(O)cc1 [DIENESTROL]	> 30 µM	> 10 µM	> 10 µM	–	> 30 µM
CN(C)CCCN1c2ccccc2CCc2ccccc21 [IMIPRAMINE]	> 30 µM	> 10 µM	> 30 µM	–	–
CN(Cc1cnc2nc(N)nc(N)c2n1)c1ccc(C(=O)N[C@@H](CCC(=O)O)C(=O)O)cc1 [METHOTREXATE]	> 30 µM	> 10 µM	> 30 µM	–	–
Cc1cccc(C)c1NC(=O)CC12CCCN1CCC2 [PILSICAINIDE]	> 30 µM	> 30 µM	> 30 µM	–	> 30 µM
CCOC(=O)C1=C(C)NC(C)=C(C(=O)OCC)C1c1ccccc1/C=C/C(=O)OC(C)(C)C [LACIDIPINE]	> 30 µM	> 30 µM	> 30 µM	–	> 30 µM
CCC[C@@H]1C[C@@H](C(=O)N[C@@H]([C@H]2O[C@H](SC)[C@H](O)[C@@H](O)[C@H]2O)[C@@H](C)O)N(C)C1 [LINCOMYCIN]	> 10 µM	> 30 µM	> 10 µM	–	–
CC(C)c1cccc(C(C)C)c1O [PROPOFOL]	> 30 µM	> 30 µM	–	–	> 30 µM
C[N+]1(C)CCC(=C(c2ccccc2)c2ccccc2)CC1	> 30 µM	> 10 µM	> 30 µM	–	> 10 µM
CCC1(c2ccc(N)cc2)CCC(=O)NC1=O (stereo unspecified) [AMINOGLUTETHIMIDE]	> 30 µM	> 30 µM	> 30 µM	–	> 30 µM
CC1=C(C(=O)OC(C)C)C(c2cccc([N+](=O)[O-])c2)C(C(=O)OC2CN(C(c3ccccc3)c3ccccc3)C2)=C(N)N1 (stereo unspecified) [AZELNIDIPINE]	> 30 µM	> 30 µM	> 30 µM	–	> 30 µM
CNCCc1ccc(OC(=O)C(C)C)c(OC(=O)C(C)C)c1 [IBOPAMINE]	> 30 µM	–	> 30 µM	–	> 30 µM
O=C1OC(OC(=O)c2cccnc2Nc2cccc(C(F)(F)F)c2)c2ccccc21 (stereo unspecified) [TALNIFLUMATE]	> 30 µM	–	> 30 µM	–	> 30 µM
CN[C@]1(c2ccccc2Cl)CCCCC1=O [ESKETAMINE]	> 30 µM	> 30 µM	> 30 µM	–	> 30 µM
C=C1c2cccc(O)c2C(=O)C2=C(O)[C@]3(O)C(=O)C(C(N)=O)=C(O)[C@@H](N(C)C)[C@@H]3[C@@H](O)[C@H]12 [METHACYCLINE]	> 30 µM	> 10 µM	> 30 µM	–	> 30 µM
CN(C)Cc1nnc2n1-c1ccc(Cl)cc1C(c1ccccc1)=NC2 [ADINAZOLAM]	> 10 µM	> 10 µM	> 10 µM	–	> 10 µM
